Experimental data as given in patent publication US10975083B2, “Blood-brain barrier-penetrant dopamine-β-hydroxylase inhibitors” (BIAL—PORTELA & Cᵃ, S.A., priority 2016, dated 2021).
Read-outs that look alike come from different tables or passages of the source. Marks after values point to notes of the source that are not given here.

Legend:
DβH = target: T1, DβH (Homo sapiens, UniProt P09172); experiment: DβH inhibition cell assay (SK-N-SH cellular homogenates, tyramine to octopamine); type: biochemical; conditions: for remaining activity at 0.1 µM: read-out: DβH activity in % of Ctrl (0.1 μM); for remaining activity at 1 µM: read-out: DβH activity in % of Ctrl (1 μM)
T1 construct: reaction mixture (total volume 500 μl) contained: cellular homogenate (75 μg total protein); host or cells: SK-N-SH cell homogenate
T1 sequence (P09172 1-617): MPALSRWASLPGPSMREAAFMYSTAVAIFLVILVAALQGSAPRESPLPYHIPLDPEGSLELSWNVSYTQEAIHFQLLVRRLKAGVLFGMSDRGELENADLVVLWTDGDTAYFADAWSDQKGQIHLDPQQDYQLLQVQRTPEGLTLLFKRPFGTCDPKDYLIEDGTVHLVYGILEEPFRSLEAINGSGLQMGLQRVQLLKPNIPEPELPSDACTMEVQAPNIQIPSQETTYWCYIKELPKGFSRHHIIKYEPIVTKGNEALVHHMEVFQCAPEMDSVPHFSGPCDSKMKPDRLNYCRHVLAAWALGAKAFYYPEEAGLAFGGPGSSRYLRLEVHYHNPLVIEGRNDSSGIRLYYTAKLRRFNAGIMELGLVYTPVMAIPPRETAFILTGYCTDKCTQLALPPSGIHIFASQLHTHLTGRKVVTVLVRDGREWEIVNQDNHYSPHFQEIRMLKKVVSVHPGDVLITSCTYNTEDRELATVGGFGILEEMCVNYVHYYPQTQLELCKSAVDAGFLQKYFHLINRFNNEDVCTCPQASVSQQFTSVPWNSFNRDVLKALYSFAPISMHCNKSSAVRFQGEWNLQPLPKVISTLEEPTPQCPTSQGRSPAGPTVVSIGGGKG

in vitro = conditions: dog, MDCK, pH 7.4
[1] = target: T2, Dopamine beta hydroxylase (Homo sapiens, UniProt P09172); experiment: DβH activity in human plasma; type: biochemical; conditions: inhibitor 0.1 μM
T2 construct: Human plasma samples were obtained from healthy donors; tissue Instituto Portugues do Sangue Transplantacao, Porto; host or cells: human plasma from healthy donors
T2 sequence (P09172 40-617 limits assumed): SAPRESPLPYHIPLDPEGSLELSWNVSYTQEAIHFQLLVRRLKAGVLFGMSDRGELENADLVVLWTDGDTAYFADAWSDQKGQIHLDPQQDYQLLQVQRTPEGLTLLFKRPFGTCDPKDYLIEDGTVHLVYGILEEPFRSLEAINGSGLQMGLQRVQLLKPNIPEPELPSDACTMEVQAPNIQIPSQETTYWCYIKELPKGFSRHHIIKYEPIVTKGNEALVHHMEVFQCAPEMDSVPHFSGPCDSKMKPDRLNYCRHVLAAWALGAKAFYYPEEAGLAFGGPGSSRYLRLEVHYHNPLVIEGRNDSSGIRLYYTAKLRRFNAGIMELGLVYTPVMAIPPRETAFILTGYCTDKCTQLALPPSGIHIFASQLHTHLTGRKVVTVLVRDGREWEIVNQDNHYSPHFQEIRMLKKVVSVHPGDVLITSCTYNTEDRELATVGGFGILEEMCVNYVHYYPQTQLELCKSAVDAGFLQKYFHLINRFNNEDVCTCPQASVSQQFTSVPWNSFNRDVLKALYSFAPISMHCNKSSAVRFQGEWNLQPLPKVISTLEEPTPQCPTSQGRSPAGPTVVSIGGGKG
Experimental: Furthermore, the ability of a compound to inhibit DβH activity may be assessed in human plasma using the following assay. […]. Dopamine beta hydroxylase activity in human plasma was measured by the method previously developed (Nagatsu, T. and Udenfriend, S. Photometric assay of dopamine-β-hydroxylase activity in human blood. Clin. Chem. 18(9) 980-983, 1972) with minor modifications. Catalase, N-ethylmaleimide, tyramine, disodium fumarate, pargyline, sodium acetate, ascorbic acid, copper sulfate and octopamine were obtained from Sigma Chemical Co., St. Louis, Mo. 63178. Human plasma samples were obtained from healthy donors (Instituto Portugues do Sangue Transplantacao, Centro Sangue Transplantacao, Porto, Portugal). From date of collection, plasma was stored at −80° C. until use. Test compounds were initially prepared in dimethyl sulfoxide at a concentration of 10 mM and diluted in dimethyl sulfoxide to the required concentrations. […] Absorbance was measured at […] in a 96-well plate by use of a SpectraMAX plus 384 (Molecular Devices) with software SOFTmax® PRO Software 5.3 spectrophotometer. Absorbance was linear with octopamine concentration from 0.5 to 20 μg/ml. Dopamine beta hydroxylase activity is determined as nmol of octopamine formed/ml of plasma/hour and effect of compounds is presented as % control. […]

[2] = inhibitor 0.1 μM, SK-N-SH cell homogenate
[3] = inhibitor 1 μM, SK-N-SH cell homogenate

SMILES | Papp A→B at 30 min, 50 μM (in vitro) [×10⁻⁶ cm/s] | remaining activity at 0.1 µM (DβH; [2]) [%] | remaining activity at 1 µM (DβH; [3]) [%] | remaining activity at 10 µM (DβH; inhibitor 10 μM, SK-N-SH cell homogenate, read-out: DβH activity in % of Ctrl (10 μM)) [%] | remaining activity at 0.1 µM (DβH) [%] | remaining activity at 1 µM (DβH) [%] | DβH activity in % of control in human plasma assay (numbers in brackets) [1]
Fc1cc(F)cc(C23CC2c2c[nH]c(=S)n2C3)c1 (centres unmarked) [Example 53, 5a-(3,5-difluorophenyl)-5,5a,6,6a-tetrahydrocyclopropa[3,4]pyrrolo[1,2-c]imidazole-3(2H)-thione] | 25.1 |  |  |  | 66.5 | 11.8 | 
Fc1cc(F)cc([C@H]2Cc3c[nH]c(=S)n3C2)c1 [Example 58, (R)-6-(3,5-difluorophenyl)-6,7-dihydro-2H-pyrrolo[1,2-c]imidazole-3(5H)-thione] | 126 |  |  |  | 106 | 59.8 | 
Cc1[nH]c(=S)n2c1[C@@H]1C[C@]1(c1cc(Br)ccc1F)C2 [Example 122, (5aS,6aR)-5a-(5-bromo-2-fluorophenyl)-1-methyl-5,5a,6,6a-tetrahydrocyclopropa[3,4]pyrrolo[1,2-c]imidazole-3 (2H)-thione] |  |  |  |  |  |  | (9.8)* % of Ctrl

Further lines, with some results ahead:

Papp A→B at 30 min, 50 μM (in vitro) [×10⁻⁶ cm/s] | remaining activity at 0.1 µM (DβH; [2]) [%] | remaining activity at 1 µM (DβH; [3]) [%] | remaining activity at 10 µM (DβH; inhibitor 10 μM, SK-N-SH cell homogenate, read-out: DβH activity in % of Ctrl (10 μM)) [%] | SMILES | remaining activity at 0.1 µM (DβH) [%] | remaining activity at 1 µM (DβH) [%] | DβH activity in % of control in human plasma assay (numbers in brackets) [1]
25.1 | 44.3 | 8.2 |  | Fc1cc(F)cc([C@]23C[C@H]2c2c[nH]c(=S)n2C3)c1 [Example 54, (5aS,6aR)-5a-(3,5-difluorophenyl)-5,5a,6,6a-tetrahydrocyclopropa[3,4]pyrrolo[1,2-c]imidazole-3(2H)-thione] |  |  | 
79.4 | 61 | 0.4 |  | Fc1ccc(F)c(C23CC2c2c[nH]c(=S)n2C3)c1 (centres unmarked) [Example 55, 5a-(2,5-difluorophenyl)-5,5a,6,6a-tetrahydrocyclopropa[3,4]pyrrolo[1,2-c]imidazole-3(2H)-thione] |  |  | 
15.8 | 41.7 | 7.8 |  | Fc1ccc(F)c([C@]23C[C@H]2c2c[nH]c(=S)n2C3)c1 [Example 56, (5aS,6aR)-5a-(2,5-difluorophenyl)-5,5a,6,6a-tetrahydrocyclopropa[3,4]pyrrolo[1,2-c]imidazole-3(2H)-thione] |  |  | 
63.1 | 97.9 | 58.6 | 9.2 | Fc1ccc(F)c([C@@]23C[C@@H]2c2c[nH]c(=S)n2C3)c1 [Example 57, (5aR,6aS)-5a-(2,5-difluorophenyl)-5,5a,6,6a-tetrahydrocyclopropa[3,4]pyrrolo[1,2-c]imidazole-3(2H)-thione] |  |  | 
251 | 100 | 27.8 |  | Fc1cc(F)cc([C@@H]2Cc3c[nH]c(=S)n3C2)c1 [Example 59, (S)-6-(3,5-difluorophenyl)-6,7-dihydro-2H-pyrrolo[1,2-c]imidazole-3(5H)-thione] |  |  | 
